Test results published in patent US20240390331A1, “ORAL BENDAMUSTINE FORMULATIONS” (TUBE Pharmaceuticals GmbH, priority 2017, published 2024).

Experiments:
[1] = PK of bendamustine capsule formulations vs 60 min IV infusion in beagle dogs, cross over (Example 7); conditions: dog, plasma
Text: As bioanalytical method a fast and reliable method was used to determine bendamustine and its main metabolite γ-hydroxybendamustine (M3 metabolite) simultaneously in plasma of different species (Srinivas N R et al., Drug Res (Stuttg), 2016, 66(7), 351-356; Chandrashekar D V et al., Drug Res (Stuttg), 2017, doi: 10.1055/s-0043-108124).
The oral bioavailability and the PK profile of formulations of bendamustine with 2-hydroxypropyl-β-cyclodextrin and β-cyclodextrin were compared in beagle dogs.
Capsules with an amount of bendamustine hydrochloride for each of the two formulations to reach a dose of 12 mg/kg were administered to beagle dogs using a cross over design and compared to 60 min IV infusion administration. Capsule formulations were stored between 2-8° C. The respective IV formulation was prepared fresh immediately prior to dosing.

[2] = bendamustine itself, Preiss R et al. 1985; cited from earlier work

In the case of `Cl.Cn1c(CCCC(=O)O)nc2cc(N(CCCl)CCCl)ccc21` [bendamustine, 4-(5-(bis-(2-chloro-ethyl)-amino)-1-methyl-1H-benzimidazol-2-yl)-butyric acid hydrochloride], the AUC [1] is given as 3800 ng·h/mL, the Cmax [1] is given as 4300 ng/mL and the oral bioavailability [2] is given as “about 56%”.
